Laboratory results taken from article PMC3341351, “Down-Regulation of GABAA Receptor via Promiscuity with the Vasoactive Peptide Urotensin II Receptor. Potential Involvement in Astrocyte Plasticity” (PLoS ONE, 2012).

Columns and labels:
Format in all cases: cell-based
[1] = tested on: α2β3 GABAAR co-expressed with human UT; assay: Patch-clamp of Iso-evoked current in CHO-UT expressing α2β3 GABAAR; conditions: hUII 10^−13 to 10^−7 M; Iso 10^−4 M, 2 s; −60 mV
Experimental: (§1) CHO-K1 cell lines were obtained from American Type Culture Collection (Manassas, VA, USA). The human UT stable CHO (CHO-UT) was generously provided by Dr Christophe Dubessy (Inserm, Rouen University, France) et generated by CHO electroporation with 20 µg pIRES-neo2-UT DNA and 500 µg sterile sonicated salmon sperm DNA using the EasyJect One electroporation system (Equibio, Angleur, Belgium), followed by repetitive rounds of limiting dilution of cells in G-418 (400 µg/ml) for selection. Normal or stable CHO was grown in Ham-F12 medium supplemented with 10% FBS, 1% antibiotic-antimicotic solution and 2 mM glutamine, at 37°C in a humidified incubator with an atmosphere of 5% CO2. The stable CHO-UT medium was supplemented with the antibiotic G-418 (40 µg/ml).
(§2) For transfection, cells were trypsinized (0.05%), triturated in HamF-12 containing 10% FBS media, pelleted by centrifugation, resuspended in 100 µl solution V for nucleofection by an Amaxa Nucleofector Device (Köln, Germany; set to program U-016). Experiments were performed on normal CHO or on the stable CHO-UT cells and transiently transfected with combinations of cDNA encoding α2β3γ2, α2β3γ1, α2β1γ2, α2β3γ1, α2β3, β3γ2 (4 µg of cDNA total/transfection) GABAAR subunits. Cells were seeded on 14-mm poly-L-lysine-coated glass bottom insert dishes at 5×10^5 cells in a volume of 0.5 ml/dish. […]

[2] = molecular target: T1, α2β3γ2 GABAAR co-expressed with human UT (Homo sapiens, UniProt Q9UKP6); assay: Patch-clamp of Iso-evoked current in CHO-UT co-expressing α2β3γ2 GABAAR (CHO-UT-GABAAR)
T1 construct: expressed in transfected cells; host or cells: CHO-K1 stably expressing human UT (pIRES-neo2-UT), transiently nucleofected with GABAAR subunit cDNAs
T1 sequence (Q9UKP6 1-389): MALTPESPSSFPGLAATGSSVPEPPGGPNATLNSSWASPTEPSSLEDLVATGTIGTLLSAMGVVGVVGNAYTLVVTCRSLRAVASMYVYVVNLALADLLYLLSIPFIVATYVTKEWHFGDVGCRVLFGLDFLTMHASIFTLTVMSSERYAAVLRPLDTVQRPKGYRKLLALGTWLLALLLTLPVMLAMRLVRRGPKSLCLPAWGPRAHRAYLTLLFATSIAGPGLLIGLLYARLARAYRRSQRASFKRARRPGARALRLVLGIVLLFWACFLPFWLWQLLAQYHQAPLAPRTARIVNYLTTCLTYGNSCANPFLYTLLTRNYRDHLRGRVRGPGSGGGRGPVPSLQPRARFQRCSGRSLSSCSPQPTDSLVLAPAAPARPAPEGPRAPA
Experimental: as §1
For transfection, cells were trypsinized (0.05%), triturated in HamF-12 containing 10% FBS media, pelleted by centrifugation, resuspended in 100 µl solution V for nucleofection by an Amaxa Nucleofector Device (Köln, Germany; set to program U-016). Experiments were performed on normal CHO or on the stable CHO-UT cells and transiently transfected with combinations of cDNA encoding α2β3γ2, α2β3γ1, α2β1γ2, α2β3γ1, α2β3, β3γ2 (4 µg of cDNA total/transfection) GABAAR subunits. Cells were seeded on 14-mm poly-L-lysine-coated glass bottom insert dishes at 5×10^5 cells in a volume of 0.5 ml/dish. Cells were incubated overnight at 37°C in a humidified incubator (5% CO2) during 16 h before electrophysiological or immunocytochemical experiments.
GABAA receptor cDNA clones; α2, β1, β3, γ1 and γ2L engineered into the expression vector pCDM8 ([…], β1, γ2) or pcDNA/Amp (β3, γ1), were generously provided by Dr Wingrove (Merk Sharp and Dohme, Harlow, UK). To obtain β3 ^HA or γ2 ^HA epitope-tagged subunits, β3 or γ2 cDNA was amplified and the PCR product was subcloned using the SalI and NotI sites of pCMV-HA (Table S2) after digestion by the same restriction enzymes.
The conventional whole-cell configuration of the patch-clamp technique was used to study the GABA-gated currents in astrocytes and granule neurons, UT stably transfected CHO, CHO-UT, and CHO transiently transfected with diverse variants of UT and GABAAR subunits. After 24-h transfection, cell culture coverslips were placed in a small chamber (1.5 ml) on a stage of a right microscope DMLFSA (Leica, Heidelberg, Germany) and superfused continuously with the following bath solution containing (in mM): NaCl, 150; KCl, 2.5; HEPES, 5; CaCl2, 2; MgCl2, 1; glucose, 10 (pH 7.4 adjusted with NaOH). The patch pipettes were fabricated from 1.5 mm (outer diameter) soft glass tubes on a two-step vertical pipette puller (List-Medical, L/M-3P-A, Darmstadt, Germany). […] ATP and GTP were added to the internal solution used to fill electrode just before recording. All recordings were obtained at RT with cells voltage-clamped at −70 mV. The GABAA receptor agonist isoguvacine was prepared in the extracellular solution and was applied to cells by pneumatic pressure ejection. To prevent desenzitization, isoguvacine was more often ejected during 5 s at 2-min intervals. ATP, GTP, or guanosine 5′-O-(2-thiodiphosphate) (GDPβS) were administered through the patch pipette solution. We investigated the effect of competitive inhibition of GDP-GTP exchange by including GDPβS in the pipette solution (in addition to the normal amount of GTP). For GDPβS and the KIC, immediately following patch rupture, GABA current recordings were performed and the experiment was commenced after an equilibration period of 15 min.
All peptide ligands, inhibitors or allosteric modulators of the GABAA receptor function were applied via gravity through a plastic tubing positioned in the vicinity of the cell body in order to maintain a sustained perfusion. In these conditions, drugs could reach the cell of interest after 30 s of perfusion. Isoguvacine was applied focally by pneumatic pressure ejection from a micropipette.

[3] = tested on: GABAAR subunit combinations co-expressed with human UT; assay: Patch-clamp of GABA current in CHO co-expressing human UT and combinations of GABAAR subunits
Experimental: as §1, §2

Compound: ETPDCFWKYCV (disulfide) [hUII, human urotensin II, synthesized by solid phase methodology]
- Inhibitory effect on Iso-evoked current, α2β3 [1]: totally ineffective

Compound: O=C(O)C1=CCNCC1 [Iso, isoguvacine]
- Apparent desensitization of Iso-evoked current ([2]; Iso 10^−4 M continuous ejection, control (Iso alone) or with hUII 10^−8 M): 59%
- Chloride reversal potential (EqCl^−) ([2]; I–V relationship, Iso 10^−4 M without (control) or with hUII 10^−8 M): 4.84 mV
- Mean time constant of recovery from desensitization (50% receptors) ([2]; after long Iso exposure (30 s), control (Iso alone) or with hUII): 16.2 s

Compound: UII: Urotensin II, species not stated at that place (rUII in astrocytes, hUII in CHO and human cells)
- Activity on αβ binary complexes [3]: inactive
- Depression of GABA current, order of subunit combinations [3]: markedly depressed the GABA current (β3γ2>α2β3γ2>α2β1γ2)
